Measured values: publication PMC7500466, “Inhibition of JNK-Mediated Autophagy Promotes Proscillaridin A- Induced Apoptosis via ROS Generation, Intracellular Ca^+2 Oscillation and Inhibiting STAT3 Signaling in Breast Cancer Cells” (Frontiers in Pharmacology, 2020)

Target: T1, STAT3 (signal transducer and activator of transcription 3) (Homo sapiens, UniProt P40763)
T1 construct: Recombinant human STAT3 protein
Assay: SPR, STAT3 immobilized on C5 sensor chip, PSD-A […]
Format: binding

T1 sequence (P40763 2-770): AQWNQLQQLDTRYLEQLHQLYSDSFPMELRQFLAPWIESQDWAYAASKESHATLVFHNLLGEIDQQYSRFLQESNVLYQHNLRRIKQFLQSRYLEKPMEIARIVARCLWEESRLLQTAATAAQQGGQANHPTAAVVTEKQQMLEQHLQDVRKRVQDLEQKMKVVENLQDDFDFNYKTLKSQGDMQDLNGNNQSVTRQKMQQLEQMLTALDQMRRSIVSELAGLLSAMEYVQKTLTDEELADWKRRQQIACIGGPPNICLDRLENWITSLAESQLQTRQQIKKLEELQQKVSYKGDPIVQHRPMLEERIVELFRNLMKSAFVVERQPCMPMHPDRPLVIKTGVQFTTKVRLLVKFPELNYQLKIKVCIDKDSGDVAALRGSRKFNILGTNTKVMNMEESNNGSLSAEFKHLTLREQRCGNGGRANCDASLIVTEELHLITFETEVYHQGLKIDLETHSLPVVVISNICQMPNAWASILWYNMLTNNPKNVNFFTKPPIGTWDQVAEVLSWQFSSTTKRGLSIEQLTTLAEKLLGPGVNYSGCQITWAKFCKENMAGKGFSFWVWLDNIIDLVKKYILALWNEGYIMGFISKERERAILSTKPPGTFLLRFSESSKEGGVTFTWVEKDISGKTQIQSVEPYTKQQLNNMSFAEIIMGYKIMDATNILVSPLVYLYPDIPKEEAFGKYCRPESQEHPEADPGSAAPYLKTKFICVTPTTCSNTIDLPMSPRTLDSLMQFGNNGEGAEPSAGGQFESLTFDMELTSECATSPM

C[C@@H]1O[C@@H](O[C@@H]2C=C3CC[C@@H]4[C@H](CC[C@]5(C)[C@@H](c6ccc(=O)oc6)CC[C@]45O)[C@@]3(C)CC2)[C@H](O)[C@H](O)[C@H]1O [PSD-A, Proscillaridin A] was tested, and the Kd was ~160 nM.
